The values that follow come from patent US12594264B2, “Modulators of alpha-synuclein proteolysis and associated methods of use” (Arvinas Operations, Inc., priority 2018, dated 2026).

The structures appear in SMILES notation.

For data set [1], the system named is PFF induced HEK293 TREX α-syn A53T cells. As to the kind of experiment: Cytotoxicity by visual inspection of treated cells. It is filed as cell-based, human. The note with it: 1 μM. On the procedure:
(§1) Targeted degradation of sarkosyl insoluble (SI) α-synuclein via exemplary bifunctional compounds was assessed by MJFF-14-6-4-2 conformation specific ELISA following treatment of PFF induced A53T α-synuclein overexpressing HEK293 cells with 1 μM exemplary compound compared to DMSO vehicle control. Degradation activity of the exemplary compounds of Table 2 is expressed as % DMSO control. […] However, the effect of bifunctional targeting degraders, shown in FIG. 5, required the intact E3 ligase binding domain.
(§2) Trex293 (doxycycline inducible) cells stably expressing human α-SYN A53T (monoclonal) were plated in poly-d-lysine coated T-75 tissue culture flasks (4.5×10e6 cells/flask) in DMEM with 10% tet-free FBS, 10 μg/ml blasticidin, and 400 μg/ml zeocin. After an overnight incubation, the cells were induced to express α-SYN by treatment with 1 μg/ml doxycycline (Dox) and exemplary bifunctional compound. After a 24 hour dox induction, the medium on the cells was changed to Opti-MEM followed by treatment with α-SYN pre-formed fibrils** (PFFs)(5 μg/flask) pre-complexed with Lipofectamine 2000 transfection reagent for 4 hours. After PFF treatment, the medium was changed back to DMEM with the supplements described above and exemplary bifunctional compound for 48 hours.
To assess targeted degradation of sarkosyl insoluble α-synuclein, exemplary bifunctional compounds designed to bind to oligomeric α-synuclein were tested at 1 μM in PFF induced HEK293 TREX α-syn A53T cells.

Data set [2] has as its target T1, sarkosyl insoluble (SI) α-synuclein (human α-SYN A53T) (Homo sapiens, UniProt P37840, A53T).
T1 construct: expressed in transfected cells
The data set is described as follows: MJFF-14-6-4-2 conformation specific ELISA of sarkosyl insoluble α-synuclein after compound treatment. It is filed as cell-based. Conditions: 1 μM compound; protein remaining relative to DMSO control; PFF induced A53T α-synuclein overexpressing HEK293 cells; read-out: Protein Degradation at 1 μM. On the procedure:
as §1, §2
Cell pellets were harvested from each flask using 0.25% trypsin followed by spinning at 500×g for 5 minutes. Each pellet was resuspended in 1 ml cold buffer H [Buffer H-10 mM Tris, 1 mM EGTA, 0.8M NaCl, 10% sucrose, pH7.4 containing 1× protease and phosphatase inhibitors] containing protease and phosphatase inhibitors. The resuspended pellets were incubated on ice for 20 minutes followed by centrifugation at 27,200×g for 20 minutes at 4° C. The supernatants were adjusted to 1% sarkosyl (Sigma) and 1% 2-mercaptoethanol followed by incubation for 1 hour at 37° C. on an orbital shaker set to 400 rpm. The samples were then spun at 150,000×g for 35 minutes at room temperature. The supernatant was removed and saved as the soluble fraction and the insoluble pellet was resuspended in 25 μl tris-buffered saline (TBS). Protein concentrations were determined by NanoDrop, and normalized protein concentrations were analyzed by WES capillary electrophoresis as well as an α-SYN oligomer ELISA.
Recombinant human α-SYN was purchased from Proteos. 1 mg aliquots were supplied at 10 mg/ml in 10 mM Tris, 50 mM NaCl, pH7.6. The aliquot was thawed on ice followed by centrifugation at 4° C. for 10 minutes at 12,000×g to pellet any insoluble material. The supernatant was removed and quantitated on a NanoDrop (A280) using Beer's Law (ε=5960 M-1 cm-1). The concentration was adjusted to 5 mg/ml in PBS followed by vortexing for 3 seconds to mix contents. The mixture was incubated in an orbital shaker set to 37° C. at 1,000 rpm for 7 days followed by aliquoting into individual use vials. Prior to addition to cells, an aliquot was thawed at room temperature, then diluted to 1 mg/ml with phosphate-buffered saline (PBS) followed by sonication for 1 minute with a probe sonicator (output 1; 90% duty cycle) in a chem hood.
Coming Costar high bind black well plates were coated with MJFR 14-6-4-2 (Abcam) at 1 μg/ml for 1 hour at 37° C. followed by washing with 1×TBS+0.1% tween-20 (TBS-T) then blocking with 3% bovine serum albumin (BSA) in TBS. After re-washing, samples were added after dilution in diluent (1% BSA/TBS-T). Non-sonicated PFF was used to generate a standard curve. The plates were incubated with sample overnight at 4° C. with shaking. The following day alkaline phosphatase (AP) conjugated MJFR 14-6-4-2 was added to the plate without washing followed by incubation at room temperature for 1 hour with shaking or rocking. The plates were then re-washed and substrate (CDP star alkaline phosphatase detection reagent) was added followed by a 30 minute incubation at room temperature. The plate was read on a luminescence plate reader. The counts were log transformed and read off the standard curve. […]
In general terms: ELISA stands for enzyme-linked immunosorbent assay.

Regarding `O=C1CCC(N2C(=O)c3ccc(OCCOCCOCCOCCOc4ccc5c(c4)Sc4cc([N+](=O)[O-])ccc4N5)cc3C2=O)C(=O)N1` (centres unmarked) [Exemplary Compound 13, 2-(2,6-dioxo-3-piperidyl)-5-[2-[2-[2-[2-[(7-nitro-10H-phenothiazin-3-yl)oxy]ethoxy]ethoxy]ethoxy]ethoxy]isoindoline-1,3-dione], the “Cytotoxicity at the concentration tested” value in data set [1] is recorded as “cytotoxicity”; in data set [1] (listed as 13) it was “cytotoxic”.

As for `Cc1ncsc1-c1ccc([C@H](C)NC(=O)[C@@H]2C[C@@H](O)CN2C(=O)[C@@H](NC(=O)COCCOCCOc2ccc3c(c2)Sc2cc([N+](=O)[O-])ccc2N3)C(C)(C)C)cc1` [Exemplary Compound 8, (2S,4R)-1-[(2S)-3,3-dimethyl-2-[[2-[2-[2-[(7-nitro-10H-phenothiazin-3-yl)oxy]ethoxy]ethoxy]acetyl]amino]butanoyl]-4-hydroxy-N-[(1S)-1-[4-(4-methylthiazol-5-yl)phenyl]ethyl]pyrrolidine-2-carboxamide], the remaining activity at 1 µM in data set [2] was in the range of 70 to 120%.

With `CNc1ccc(-c2nc3ccc(OCCOCCOCC(=O)N[C@H](C(=O)N4C[C@H](O)C[C@H]4C(=O)N[C@@H](C)c4ccc(-c5scnc5C)cc4)C(C)(C)C)cc3s2)cc1` [Exemplary Compound 1, (2S,4R)-1-[(2S)-3,3-dimethyl-2-[[2-[2-[2-[[2-[4-(methylamino)phenyl]-1,3-benzothiazol-6-yl]oxy]ethoxy]ethoxy]acetyl]amino]butanoyl]-4-hydroxy-N-[(1S)-1-[4-(4-methylthiazol-5-yl)phenyl]ethyl]pyrrolidine-2-carboxamide], the remaining activity at 1 µM in data set [2] was under 35%.

Take `CN(CCCN1c2ccccc2Sc2ccccc21)CCOCCOCCOc1ccc2c(c1)C(=O)N(C1CCC(=O)NC1=O)C2=O` (centres unmarked) [Exemplary Compound 15, 5-(2-(2-(2-((3-(10H-phenothiazin-10-yl)propyl)(methyl)amino)ethoxy)ethoxy)ethoxy)-2-(2,6-dioxopiperidin-3-yl)isoindoline-1,3-dione]: the remaining activity at 1 µM in data set [2] was 35 to 70%.

For `Cc1ncsc1-c1ccc([C@H](C)NC(=O)[C@@H]2C[C@@H](O)CN2C(=O)[C@@H](NC(=O)CN2CCN(CCN3CCC(O[C@H]4C[C@H](Oc5ccc6c(c5)Sc5cc([N+](=O)[O-])ccc5N6)C4)CC3)CC2)C(C)(C)C)cc1` [Exemplary Compound 34, (2S,4R)-1-((S)-3,3-dimethyl-2-(2-(4-(2-(4-((1r,3r)-3-((7-nitro-10H-phenothiazin-3-yl)oxy)cyclobutoxy)piperidin-1-yl)ethyl)piperazin-1-yl)acetamido)butanoyl)-4-hydroxy-N-((S)-1-(4-(4-methylthiazol-5-yl)phenyl)ethyl)pyrrolidine-2-carboxamide], the remaining activity at 1 µM in data set [2] is under 35%.

As to `CNc1ccc(-c2nc3ccc(OCCOCCOCCOCCOCCOCC(=O)N[C@H](C(=O)N4C[C@H](O)C[C@H]4C(=O)N[C@@H](C)c4ccc(-c5scnc5C)cc4)C(C)(C)C)cc3s2)cc1` [Exemplary Compound 4, (2S,4R)-1-((S)-2-(tert-butyl)-20-((2-(4-(methylamino)phenyl)benzo[d]thiazol-6-yl)oxy)-4-oxo-6,9,12,15,18-pentaoxa-3-azaicosanoyl)-4-hydroxy-N-((S)-1-(4-(4-methylthiazol-5-yl)phenyl)ethyl)pyrrolidine-2-carboxamide], the remaining activity at 1 µM in data set [2] is under 35%.

For the molecule `COc1ccc2nc(-c3ccc(N4CC(OC5CCN(CCN6CCN(c7ccc8c(c7)C(=O)N(C7CCC(=O)NC7=O)C8=O)CC6)CC5)C4)cc3)sc2c1` (centres unmarked) [Exemplary Compound 26, 2-(2,6-dioxopiperidin-3-yl)-5-(4-[2-[4-([1-[4-(6-methoxy-1,3-benzothiazol-2-yl)phenyl]azetidin-3-yl]oxy)piperidin-1-yl]ethyl]piperazin-1-yl)-2,3-dihydro-1H-isoindole-1,3-dione], in data set [2], the remaining activity at 1 µM lay within 35 to 70%.
